According to publication PMC4701951, “Characterization of a New M13 Metallopeptidase from Deep-Sea Shewanella sp. E525-6 and Mechanistic Insight into Its Catalysis” (Frontiers in Microbiology, 2016):

Molecular target: T1, PepS (Shewanella sp. E525-6, UniProt A0A140CQI1)
T1 construct: mature N-terminus L17-T-A-C-N21 (16-residue signal peptide removed)
T1 sequence (A0A140CQI1 17-694): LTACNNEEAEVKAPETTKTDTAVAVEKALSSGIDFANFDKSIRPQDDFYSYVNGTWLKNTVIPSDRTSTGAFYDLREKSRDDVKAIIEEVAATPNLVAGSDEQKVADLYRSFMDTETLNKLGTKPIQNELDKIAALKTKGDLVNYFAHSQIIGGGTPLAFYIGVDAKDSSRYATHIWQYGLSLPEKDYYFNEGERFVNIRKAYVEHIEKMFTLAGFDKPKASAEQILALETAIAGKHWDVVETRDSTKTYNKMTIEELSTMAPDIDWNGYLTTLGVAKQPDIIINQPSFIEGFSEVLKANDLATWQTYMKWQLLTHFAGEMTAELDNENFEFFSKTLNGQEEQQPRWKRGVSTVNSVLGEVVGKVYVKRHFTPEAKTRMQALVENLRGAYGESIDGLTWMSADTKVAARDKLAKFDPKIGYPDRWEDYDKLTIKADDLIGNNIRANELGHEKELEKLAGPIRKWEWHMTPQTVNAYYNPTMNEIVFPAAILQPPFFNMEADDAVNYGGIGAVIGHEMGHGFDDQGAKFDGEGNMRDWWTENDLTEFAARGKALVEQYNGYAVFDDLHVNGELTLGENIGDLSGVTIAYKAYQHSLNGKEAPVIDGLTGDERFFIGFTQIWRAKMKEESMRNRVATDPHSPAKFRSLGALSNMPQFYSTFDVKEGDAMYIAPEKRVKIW
Test: residual peptidase activity, HPLC of product FSP
Assay type: biochemical
Description: residual peptidase activity, HPLC of product FSP on PepS

## CC(C)C[C@H](NP(=O)(O)O[C@@H]1O[C@@H](C)[C@H](O)[C@@H](O)[C@H]1O)C(=O)N[C@@H](Cc1c[nH]c2ccccc12)C(=O)O [Phosphoramidon]
  remaining activity at 10 µM: 4.3 ± 0.4%
